Measurements: patent US4695622A, “Hexapeptide” (Vsesojuzny Kardiologichesky Nauchny Tsentr Akademii …, priority 1984, dated 1987)
Residues, ends and D or L forms follow the SMILES beside them.

Legend:
[1] = test system: experimental hemorrhagic pancreonecrosis; test: Enzymatic activity in blood serum in experimental hemorrhagic pancreonecrosis (acute pancreatitis model); type: in vivo, dogs
Procedure: (§1) The biological activity of the hexapeptide according to the present invention has been studied in experiments on dogs using an experimental acute pancreatitis model.
(§2) To this end, a similar operation was performed on 10 dogs. Under hexenal narcosis upper-median laparotomy was made. Into the wound a loop of duodenum was introduced with pancreas, cannulated and Wirsung's duct was dressed on a drain Snatorini's duct was additionally dressed too. Then the gall-bladder was punctured, bile was extracted therefrom and injected under pressure into Wirsung's duct at the rate of 0.5 ml per kg of the animal's bodyweight. As a stimulant of the pancreas secretion secretin and cholecystopancreoziimin were used which were intravenously administered at the rate of two units per kg of a dog's bodyweight. For administration of the stimulants of the pancreatic secretion, the hexapeptide according to the present invention and obtaining blood, the femoral vein was catheterized. For the measurement of diuresis and urine examination epicystostomy was effected or both ureters were catheterized. All the experiments were carried out on an empty stomach of the animals.
Prior to introduction of bile into Wirsung's duct, background samples of blood, urina and pancreatic juice were taken for special enzymological investigations. After administration of bile into Wirsung's duct the same biological tests were carried out every hour until the experiment was completed. The activity of the following pancreatic enzymes was studied: α-amylase, lipase, total esterase activity, antitryptic activity.
(§3) 30 minutes after the administration of bile into Wirsung's duct and then every 2 hours small pieces of pancreas tissue were taken from the animals from various sections for morphological investigations. In the second series of experiments 5 dogs were used. A hemorrhagic pancreonecrosis was induced in them and 2 hours after the development of acute pancreatitis an intravenous administration of the hexapeptide according to the present invention was started at the rate of 0.3 mg per kg of the animal's bodyweight. For enzymological and morphological studies the same biological samples and pieces of tissues of the pancreas were taken. The dogs were slaughtered 6-8 hours after the beginning of the experiment.
(§4) In the third series of experiments two dogs were used. The induced experimental pancreatitis was treated by means of the hexapeptide according to the present invention. The same tests were performed, but the dogs were not slaughtered. 24 hours from the beginning of the experiment and then 7 days and 15 days thereafter they were subjected to relaparotomy, the macroscopic view of pancreas was studied, pieces of the tissue of pancreas were taken for morphological studies.
(§5) The effect of the hexapeptide according to the present invention was compared with that of widely employed preparations--5-fluorouracyl an d tracilol--on the same model of acute pancreatitis.

Acute toxicity (LD50) = conditions: for LD50: acute toxicity, dose causing death of 50% of the animals; for LD50 surpasses the therapeutic dose by: therapeutic dose: 5-fluorouracyl 5 mg/kg, hexapeptide 0.3 mg/kg
[2] = test system: experimental hemorrhagic pancreonecrosis; test: Morphological studies of the pancreas in experimental hemorrhagic pancreonecrosis; type: in vivo, dogs; conditions: for Morphology of pancreas, early stages of treatment: tracilol 10,000 units per hour, hexapeptide 0.3 mg/kg
Procedure: as §1, §2
Three dogs were used in the control group of the experiments. They were treated to induce an experimental pancreatitis only without administration of the hexapeptide according to the present invention; an acute experiment lasted for 6-8 hours, whereafter the dogs were slaughtered by intracardiac administration of hexenal.
as §3, §4, §5

Solubility of the powder = type: physicochemical
Procedure: The hexapeptide according to the present invention comprises a white powder, well soluble in distilled water, a physiological solution, ethanol; insoluble in ether, ethylacetate, benzene. The melting temperature is 173°-176° C. [α]D^22 =-19.1 (c 0.33 H2 O).

[3] = Effect on cell formula of the blood and immune system; conditions: in vivo
[4] = dogs, developed pancreonecrosis, hexapeptide 0.3 mg/kg

SMILES: O=c1[nH]cc(F)c(=O)[nH]1 [5-fluorouracyl, reference compound]
- Total esterase activity in blood serum ([1]; dogs (3), 5-fluorouracyl 5 mg/kg i.v., after 4 hours, value for developed pancreonecrosis 0.58 ± 0.07): 0.56 ± 0.02 μM/ml
- Activity of lipase in blood serum ([1]; dogs (3), 5-fluorouracyl 5 mg/kg i.v., after 4 hours, value for developed pancreonecrosis 0.62 ± 0.12): 0.48 ± 0.02 units
- Antitryptic activity in blood serum ([1]; dogs (3), 5-fluorouracyl 5 mg/kg i.v., after 4 hours, value for developed pancreonecrosis 22.2 ± 1.4): 20.1 ± 1.2 IU
- Activity of alpha-amylase in blood serum ([1]; dogs (3), 5-fluorouracyl 5 mg/kg i.v., after 4 hours, value for developed pancreonecrosis 158.0 ± 18.2): 152.2 ± 24.1 mg/h · ml
- Total esterase activity in blood serum ([1]; dogs (3), 5-fluorouracyl 5 mg/kg i.v., after 6 hours, value for developed pancreonecrosis 0.58 ± 0.07): 0.58 ± 0.04 μM/ml
- Activity of lipase in blood serum ([1]; dogs (3), 5-fluorouracyl 5 mg/kg i.v., after 6 hours, value for developed pancreonecrosis 0.62 ± 0.12): 0.54 ± 0.08 units
- Antitryptic activity in blood serum ([1]; dogs (3), 5-fluorouracyl 5 mg/kg i.v., after 6 hours, value for developed pancreonecrosis 22.2 ± 1.4): 20.1 ± 1.2 IU
- Activity of alpha-amylase in blood serum ([1]; dogs (3), 5-fluorouracyl 5 mg/kg i.v., after 6 hours, value for developed pancreonecrosis 158.0 ± 18.2): 153.3 ± 17.1 mg/h · ml
- Characteristics of activity of enzymes in blood serum (lipase, esterase, antitryptic), in words ([1]; dogs, developed pancreonecrosis, 5-fluorouracyl 5 mg/kg, tracilol 10,000 units/hour): remain substanctially unchanged
- LD50 (Acute toxicity (LD50)): 750 mg/kg
- LD50 surpasses the therapeutic dose by (Acute toxicity (LD50)): 150 times
- Morphology of pancreas 7 days after the beginning of the treatment ([2]; dogs, 5-fluorouracyl 5 mg/kg): pronounced fibrosis of the pancreas with breaking of lobules into fragments
- Regeneration of the pancreas ([2]; dogs, 5-fluorouracyl 5 mg/kg, later stages of treatment): incomplete
- Morphology of pancreas, early stages of treatment ([2]; dogs, 5-fluorouracyl 5 mg/kg): noticeable inflammatory infiltration of necrotic zones and of the interstice is retained

SMILES: CC(C)C[C@H](NC(=O)[C@H](Cc1ccccc1)NC(=O)CNC(=O)[C@H](C)NC(=O)[C@@H](N)Cc1ccc(O)cc1)C(=O)N[C@@H](CCCNC(=N)N)C(=O)O [Tyrosyl-alanyl-glycyl-phenylalanyl-leucyl-arginine] (H-YAGFLR-OH)
- Total esterase activity in blood serum ([1]; dogs (7), hexapeptide 0.3 mg/kg i.v., after 4 hours, value for developed pancreonecrosis 0.76 ± 0.05): 0.16 ± 0.08 μM/ml
- Activity of lipase in blood serum ([1]; dogs (7), hexapeptide 0.3 mg/kg i.v., after 4 hours, value for developed pancreonecrosis 1.15 ± 0.03): 0.25 ± 0.02 units
- Antitryptic activity in blood serum ([1]; dogs (7), hexapeptide 0.3 mg/kg i.v., after 4 hours, value for developed pancreonecrosis 26.5 ± 1.3): 78.0 ± 13.1 IU
- Activity of alpha-amylase in blood serum ([1]; dogs (7), hexapeptide 0.3 mg/kg i.v., after 4 hours, value for developed pancreonecrosis 178 ± 28.2): 246.2 ± 26.7 mg/n · ml
- Total esterase activity in blood serum ([1]; dogs (7), hexapeptide 0.3 mg/kg i.v., after 6 hours, value for developed pancreonecrosis 0.76 ± 0.05): 0.20 ± 0.09 μM/ml
- Activity of lipase in blood serum ([1]; dogs (7), hexapeptide 0.3 mg/kg i.v., after 6 hours, value for developed pancreonecrosis 1.15 ± 0.03): 0.40 ± 0.05 units
- Antitryptic activity in blood serum ([1]; dogs (7), hexapeptide 0.3 mg/kg i.v., after 6 hours, value for developed pancreonecrosis 26.5 ± 1.3): 72.0 ± 2.5 IU
- Activity of alpha-amylase in blood serum ([1]; dogs (7), hexapeptide 0.3 mg/kg i.v., after 6 hours, value for developed pancreonecrosis 178 ± 28.2): 258.2 ± 33.2 mg/n · ml
- Activity of lipase in blood serum (in words) [1, 4]: sharply reduced
- Increase of the antitryptic activity (in words) [1, 4]: three-time increase
- Total esterase activity of blood (in words) [1, 4]: lowered
- Synthesis of pancreatic enzymes in acute pancreatitis ([1]; dogs, hexapeptide): effectively inhibits
- Solubility (Solubility of the powder; benzene): insoluble
- Solubility (Solubility of the powder; distilled water): well soluble
- Solubility (Solubility of the powder; ethanol): well soluble
- Solubility (Solubility of the powder; ether): insoluble
- Solubility (Solubility of the powder; ethylacetate): insoluble
- Solubility (Solubility of the powder; physiological solution): well soluble
- Cell formula of the blood [3]: does not change the cell formula of the blood
- Pathological responses on the part of the immune system [3]: does not cause pathological responses
- Processes of homeopoiesis [3]: does not inhibit the processes of homeopoiesis
- LD50 (Acute toxicity (LD50)): 150 mg/kg
- LD50 surpasses the therapeutic dose by (Acute toxicity (LD50)): 500 times
- Morphology of hemorrhagic pancreonecrosis one day after the treatment ([2]; dogs, hexapeptide i.v.): positive dynamics
- Regeneration of the acinar tissue ([2]; dogs, hexapeptide, 14 days after the beginning of the treatment): complete regeneration of the acinar tissue
- Morphology of pancreas, early stages of treatment ([2]; dogs, 5-fluorouracyl 5 mg/kg): absence of signs of hemorrhagic zones of necrosis and hemorrhages into the interstice
- Antipancreonecrotic activity ([2]; overall conclusion): exhibits an antipancreonecrotic activity
